Usually IC50 stands for the concentration at which inhibition is half-maximal.

We go through 13 compounds from patent publication US20250059175A1, “Mutant Pi3k-Alpha Inhibitors And Their Use As Pharmaceuticals” (Prelude Therapeutics Incorporated, priority 2023, published 2025).

Bounds are passed on as bounds.

Test [1] deals with phosphorylation of AKT on Ser473 (PI3K pathway) in SKBR3 (PIK3CA WT) cell line. Briefly: PI3K pathway activation assay (pAKT Ser473 HTRF), SKBR3 cells. The class given is cell-based. The note with it: Homo sapiens, SK-BR-3, 2 h, two hours of treatment. Here is the method:
(§1) The inhibitory activity of the compounds of the disclosure was evaluated by measuring phosphorylation of AKT on Ser473 as a readout of the PI3K pathway using HTRF (CisBio catalog number: 64AKSPE). These studies were conducted in the T-47D (heterozygous PIK3CA H1047R) and SKBR3 (PIK3CA WT) cell lines. Cells were maintained in a 37° C. incubator at 5% CO2 in the following media: T-47D: RPMI 1640, ATCC© Modification (Gibco, A10491-01) supplemented with 10% v/v FBS (Gibco, 26140-079), 1% penicillin streptomycin (Gibco, 15140-122), and 7.4 ug/mL insulin (MilliporeSigma, I9278); SKBR3: McCoy's 5a (Modified) Medium (Gibco, 16600-082) supplemented with 10% v/v FBS (Gibco, 26140-079). Cells were seeded in 384-well plates at a density of 4,000 cells/well. Compounds dissolved in DMSO were added using a digital dispense (D300E, Tecan) 10-point serial dilution. After two hours of treatment, cells were lysed for thirty minutes and then incubated with detection reagents per HTRF kit material and manufacturer's instructions. Fluorescence signal was measured with a multimode plate reader (Envision 2105, Perkin Elmer). Fluorescent signal was normalized to background and DMSO controls to obtain percent inhibition/activity for each compound.
A general note: In TR-FRET formats the signal depends on donor and acceptor labels being close together.

The subject of test [2] is phosphorylation of AKT on Ser473 (PI3K pathway) in T-47D (heterozygous PIK3CA H1047R) cell line. Put plainly: PI3K pathway activation assay (pAKT Ser473 HTRF), T-47D cells. The class given is cell-based. The conditions noted are these: Homo sapiens, T47D, 2 h; T-47D (heterozygous PIK3CA H1047R) cells, two hours of treatment, pAKT Ser473 HTRF; read-out: T47D pAKT IC50. Here is the method: as §1

In the case of `Cc1cc([C@@H](C)Nc2ccc(Cl)nc2C(=O)O)nc(N2C(=O)OC[C@@H]2Cc2cccc(C)c2F)c1` [Example 20, 6-Chloro-3-(((R)-1-(6-((S)-4-(2-fluoro-3-methylbenzyl)-2-oxooxazolidin-3-yl)-4-methylpyridin-2-yl)ethyl)amino)picolinic acid], the values for the IC50 in test [1] and in test [2] were above 10 µM and below 0.1 µM, respectively.

Turning to `Cc1cc([C@@H](C)Nc2ccc(Cl)nc2C(=O)O)nc(N2C(=O)OC[C@@H]2Cc2ccncc2F)c1` [Example 21, 6-Chloro-3-(((R)-1-(6-((S)-4-((3-fluoropyridin-4-yl)methyl)-2-oxooxazolidin-3-yl)-4-methylpyridin-2-yl)ethyl)amino)picolinic acid], the half-inhibitory concentration (IC50) in test [1] is 1 to 10 µM; in test [2] it was below 0.1 µM.

For `Cc1cc([C@@H](C)Nc2ccc(Cl)nc2C(=O)O)nc(N2C(=O)OC[C@@H]2Cc2ccc(C(F)(F)F)cc2)c1` [Example 23, 6-Chloro-3-(((R)-1-(4-methyl-6-((S)-2-oxo-4-(4-(trifluoromethyl)benzyl)oxazolidin-3-yl)pyridin-2-yl)ethyl)amino)picolinic acid], the IC50 in test [1] is above 10 µM; in test [2], below 0.1 µM.

For `Cc1cc([C@@H](C)Nc2ccc(Cl)nc2C(=O)O)nc(N2C(=O)OC[C@@H]2Cc2ccc(F)cc2)c1` [Example 24, 6-Chloro-3-(((R)-1-(6-((S)-4-(4-fluorobenzyl)-2-oxooxazolidin-3-yl)-4-methylpyridin-2-yl)ethyl)amino)picolinic acid], the IC50 in test [1] is above 10 µM; in test [2], below 0.1 µM.

As to `Cc1cc([C@@H](C)Nc2ccc(Cl)nc2C(=O)O)nc(N2C(=O)OC[C@@H]2Cc2ccc(F)cc2F)c1` [Example 26, 6-Chloro-3-(((R)-1-(6-((S)-4-(2,4-difluorobenzyl)-2-oxooxazolidin-3-yl)-4-methylpyridin-2-yl)ethyl)amino)picolinic acid], the half-inhibitory concentration (IC50) in test [1] is above 10 µM; in test [2] it was below 0.1 µM.

Take `COc1ccc(C[C@H]2COC(=O)N2c2cc(C)cc([C@@H](C)Nc3ccc(Cl)nc3C(=O)O)n2)c(F)c1` [Example 27, 6-Chloro-3-(((R)-1-(6-((S)-4-(2-fluoro-4-methoxybenzyl)-2-oxooxazolidin-3-yl)-4-methylpyridin-2-yl)ethyl)amino)picolinic acid]: the IC50 was above 10 µM in test [1] and below 0.1 µM in test [2].

For the compound `COc1cc(C[C@H]2COC(=O)N2c2cc(C)cc([C@@H](C)Nc3ccc(Cl)nc3C(=O)O)n2)c(F)cn1` [Example 29, 6-Chloro-3-(((R)-1-(6-((S)-4-((5-fluoro-2-methoxypyridin-4-yl)methyl)-2-oxooxazolidin-3-yl)-4-methylpyridin-2-yl)ethyl)amino)picolinic acid], the results for the IC50 in test [1] and in test [2] were above 10 µM and below 0.1 µM, respectively.

In the case of `Cc1cc([C@@H](C)Nc2ccc(Cl)nc2C(=O)O)nc(N2C(=O)OC[C@@H]2Cc2cccc(C#N)c2)c1` [Example 48, 6-Chloro-3-(((R)-1-(6-((S)-4-(3-cyanobenzyl)-2-oxooxazolidin-3-yl)-4-methylpyridin-2-yl)ethyl)amino)picolinic acid], the IC50 is above 10 µM in test [1] and below 0.1 µM in test [2].

On to `Cc1cc([C@@H](C)Nc2ccc(Cl)nc2C(=O)O)nc(N2C(=O)OC[C@@H]2Cc2ccc(C#N)cc2F)c1` [Example 49, 6-Chloro-3-(((R)-1-(6-((S)-4-(4-cyano-2-fluorobenzyl)-2-oxooxazolidin-3-yl)-4-methylpyridin-2-yl)ethyl)amino)picolinic acid], for which the IC50 in test [1] is above 10 µM; in test [2], below 0.1 µM.

In the case of `Cc1cc([C@@H](C)Nc2ccc(Cl)nc2C(=O)O)nc(N2C(=O)N(C)C[C@@H]2Cc2ccc(F)cc2)c1` [Example 58, 6-Chloro-3-(((R)-1-(6-((S)-5-(4-fluorobenzyl)-3-methyl-2-oxoimidazolidin-1-yl)-4-methylpyridin-2-yl)ethyl)amino)picolinic acid], the concentration for half-maximal inhibition (IC50) in test [1] was above 10 µM; in test [2], below 0.1 µM.

In the case of `Cc1cc([C@@H](C)Nc2ccc(Cl)nc2C(=O)O)nc(N2C(=O)N(C)C[C@@H]2Cc2ccc(F)cc2F)c1` [Example 59, 6-Chloro-3-(((R)-1-(6-((S)-5-(2,4-difluorobenzyl)-3-methyl-2-oxoimidazolidin-1-yl)-4-methylpyridin-2-yl)ethyl)amino)picolinic acid], the figures for the half-inhibitory concentration (IC50) in test [1] and in test [2] were above 10 µM and 0.1 to 1 µM, respectively.

Turning to `Cc1cc([C@@H](C)Nc2ccc(Cl)nc2C(=O)O)nc(N2C(=O)N(C)C[C@@H]2Cc2ccccc2)c1` [Example 60, 3-(((R)-1-(6-((S)-5-Benzyl-3-methyl-2-oxoimidazolidin-1-yl)-4-methylpyridin-2-yl)ethyl)amino)-6-chloropicolinic acid], the IC50 in test [1] was 1 to 10 µM; in test [2], below 0.1 µM.

Regarding `C[C@@H](Nc1ccc(Cl)nc1C(=O)O)c1cc(F)cc(N2C(=O)OC[C@@H]2Cc2ccccc2F)c1` [Example 61, 6-Chloro-3-(((R)-1-(3-fluoro-5-((S)-4-(2-fluorobenzyl)-2-oxooxazolidin-3-yl)phenyl)ethyl)amino)picolinic acid], the results for the IC50 in test [1] and in test [2] were 1 to 10 µM and below 0.1 µM, respectively.
